# Values joined by “and” are separate entries in the source; they are usually repeats but may differ in a detail not shown here. Equal values may be shown once. “Also recorded” adds a separate entry of the source. Read-outs that look alike come from different tables or passages of the source.
# What was measured:
# [1] = pig, in vivo
# [2] = pig, in vivo; remark: listed apart in the source
# [3] = system: immunoglobulin (IgG) in serum; conditions: pig, in vivo
# [4] = system: Foot-and-mouth disease antibody (FMDV type 0); conditions: pig, in vivo
# H1N1 virus [5] = assay: H1N1 virus content in lung tissue of mice; format: in vivo; conditions: oral 20 μg/kg/day for 5 days; for Tissues virus titers: lung tissue of H1N1-infected ICR mice
# H1N1 virus [6] = assay: Body weight change of H1N1-infected mice; format: in vivo; conditions: H1N1-infected ICR mice; for Body weight, Start point (day 0): baseline before oral 20 μg/kg/day; for Body weight as compared to the negative control group / Body weight, End point (day 5): oral 20 μg/kg/day for 5 days; for Body weight, End point (day 5): start point 100.0
Compound,"Body weight, End time [1]","Body weight, Start time [1]",Zinc [2] [c μg/dL],IgG [3],Antibody titer (PI) [4] [b],Positive rate [4],Positive rate for the foot-and-mouth disease antibody [4] [%],Tissues virus titers (H1N1 virus [5]),"Body weight, Start point (day 0) (H1N1 virus [6])",Body weight as compared to the negative control group (H1N1 virus [6]),"Body weight, End point (day 5) (H1N1 virus [6])",Body weight as compared to CON 1 and CON 2 [1],Zinc content in blood as compared to CON 1 and CON 2 [2],Virus content in the lung tissue (H1N1 virus [5]; H1N1-infected ICR mice),IgG ([3]; hydrate),Immunoglobulin content in blood as compared to CON 1 and CON 2 ([3]; hydrate),Production of the foot-and-mouth disease antibody as compared to CON 1 and CON 2 ([4]; hydrate),Immunoglobulin content in blood as compared to CON 1 and CON 2 [3],Production of the foot-and-mouth disease antibody as compared to CON 1 and CON 2 [4]
"[O-2].[Zn+2] [CON 1, zinc oxide]",53.62b,22.56,100,472b mg/dL,47.38,50,50,–,–,–,–,–,–,–,–,–,–,–,–
"O=S(=O)([O-])[O-].[Zn+2] [CON 2, zinc sulfate]",53.74b,22.56,98,466b mg/dL,47.52,50,50,4.4b Log10 TCID50,100.0,decreased body weight,99.9a,–,–,–,–,–,–,–,–
"N[C@@H](CC(=O)[O-])C(=O)[O-].O.[Zn+2] [Example 1-2, zinc aspartate hydrate]",–,22.56 ^,–,–,–,–,100,2.1a Log10 TCID50,100.0,did not show significant increase in body weight,106.8b,slight increase in body weight,increased significantly,decreased significantly,504ab mg/dL and 546a mg/dL,"significant increase; also recorded: distinct, although not significant, increase",increased slightly; also recorded: Significant increase,–,–
zinc-aspartic acid complex [Comparative Example 3],54.55a,22.56 ^,–,489b ^ mg/dL,54.45,75,75,3.9b Log10 TCID50,100.0 ^,did not show significant increase in body weight,103.7ab,slight increase in body weight,–,–,–,–,–,not significantly different,increased slightly
zinc-aspartic acid complex [Example 1-1],54.43ab,22.56 ^,–,480b mg/dL,51.88,75,75,4.1b Log10 TCID50,100.0 ^,did not show significant increase in body weight,104.8ab,slight increase in body weight,–,–,–,–,–,not significantly different,increased slightly

# From US12583873B2, “Amino acid mineral complex having immunopotentiating activity and composition for foods, pharmaceuticals, or feeds comprising same” (priority 2018, dated 2026)
